Data taken from publication PMC12439166, “Dietary flavonoids form supramolecular assemblies, alter biochemistry, and enhance cell resilience” (Frontiers in Nutrition, 2025).

Biological target: T1, Sirtuin-3 (SIRT3) (Homo sapiens, UniProt Q9NTG7)
T1 sequence (Q9NTG7 1-399): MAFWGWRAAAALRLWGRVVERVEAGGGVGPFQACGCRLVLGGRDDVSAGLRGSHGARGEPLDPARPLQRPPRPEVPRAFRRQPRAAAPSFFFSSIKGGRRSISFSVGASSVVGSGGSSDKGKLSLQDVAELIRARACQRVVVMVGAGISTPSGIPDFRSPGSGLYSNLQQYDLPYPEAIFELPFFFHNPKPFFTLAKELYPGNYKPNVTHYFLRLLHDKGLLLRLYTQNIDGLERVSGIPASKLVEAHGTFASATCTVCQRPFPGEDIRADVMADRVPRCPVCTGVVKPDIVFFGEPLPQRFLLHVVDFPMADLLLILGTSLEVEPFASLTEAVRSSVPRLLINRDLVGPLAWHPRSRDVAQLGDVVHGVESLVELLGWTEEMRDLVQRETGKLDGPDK
Assay: Enzyme activity assay (SAMDI-MS), SIRT3
Assay type: biochemical
Details: 10 concentrations, 5 nM to 100 μM, compounds incubated with enzyme 30 min, result in words
Procedure: Enzyme screens were performed by SAMDI Tech (contract research organization); enzyme assays were performed in a 20 μL volume in 384-well low-volume polypropylene microtiter plates (Greiner Bio-One) at room temperature. The enzymes [Arginase 1 (ARG1), Lysine demethylase 4C (KDM4C), MAP/microtubule affinity-regulating kinase 4 (MARK4), Histone-Lysine N-methyltransferase (NSD2), Tyrosine-protein phosphatase non-receptor type 1 (PTP1B), and Sirtuin-3 (SIRT3)] were incubated with compounds for 30 min prior to initiation of the reaction by the addition of substrate and cofactors (if required). […] SAMDI MS was performed using reflector positive mode on an AB Sciex TOF-TOF 5800 System (AB Sciex, Framingham, MA) with 400 shots/spot analyzed in a random raster sampling. For data analysis, the area under the curves (AUCs) for the product peak and substrate peak were calculated using the TOF/TOF Series Explorer (AB Sciex), and the amount of product formed was calculated using the equation AUC product / (AUC product + AUC Substrate). […]
IC50 values of enzyme inhibition. Inhibition of the enzymes was measured at 10 concentration values in the range of 5 nM to 100 μM for each compound and enzyme, with two technical replicates; the percent inhibition values were determined by SAMDI software. […]

SMILES: O=c1c(O)c(-c2ccc(O)c(O)c2)oc2cc(O)cc(O)c12 [quercetin]
- inhibition of enzyme activity, SIRT3 (listed as Quercetin): inhibited
- inhibition of enzyme activity, SIRT3 (listed as Quercitin): concentration-dependent inhibition
